Test [1] addresses T1, Alpha-1B adrenergic receptor (Homo sapiens, UniProt P35368).
T1 sequence (P35368 whole entry): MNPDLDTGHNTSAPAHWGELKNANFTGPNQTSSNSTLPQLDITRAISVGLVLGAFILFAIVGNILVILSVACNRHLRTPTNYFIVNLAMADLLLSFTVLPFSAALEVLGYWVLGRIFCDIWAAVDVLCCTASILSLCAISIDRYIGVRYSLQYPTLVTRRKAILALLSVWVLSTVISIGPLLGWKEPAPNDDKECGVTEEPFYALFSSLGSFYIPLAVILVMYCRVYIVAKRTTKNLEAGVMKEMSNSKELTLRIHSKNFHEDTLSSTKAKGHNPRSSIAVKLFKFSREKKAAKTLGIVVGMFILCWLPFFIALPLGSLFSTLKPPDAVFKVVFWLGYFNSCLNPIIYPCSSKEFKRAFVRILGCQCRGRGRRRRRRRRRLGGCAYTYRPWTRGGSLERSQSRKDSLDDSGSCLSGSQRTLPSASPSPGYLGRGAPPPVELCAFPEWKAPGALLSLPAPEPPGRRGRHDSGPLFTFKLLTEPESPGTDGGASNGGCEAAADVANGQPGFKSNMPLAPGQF
The experiment in a line: Tested for binding affinity against recombinant human Alpha-1B adrenergic receptor using [125I]HEAT in competition binding assay.

Test [2] deals with T2, Alpha-1D adrenergic receptor (Homo sapiens, UniProt P25100).
T2 sequence (P25100 whole entry): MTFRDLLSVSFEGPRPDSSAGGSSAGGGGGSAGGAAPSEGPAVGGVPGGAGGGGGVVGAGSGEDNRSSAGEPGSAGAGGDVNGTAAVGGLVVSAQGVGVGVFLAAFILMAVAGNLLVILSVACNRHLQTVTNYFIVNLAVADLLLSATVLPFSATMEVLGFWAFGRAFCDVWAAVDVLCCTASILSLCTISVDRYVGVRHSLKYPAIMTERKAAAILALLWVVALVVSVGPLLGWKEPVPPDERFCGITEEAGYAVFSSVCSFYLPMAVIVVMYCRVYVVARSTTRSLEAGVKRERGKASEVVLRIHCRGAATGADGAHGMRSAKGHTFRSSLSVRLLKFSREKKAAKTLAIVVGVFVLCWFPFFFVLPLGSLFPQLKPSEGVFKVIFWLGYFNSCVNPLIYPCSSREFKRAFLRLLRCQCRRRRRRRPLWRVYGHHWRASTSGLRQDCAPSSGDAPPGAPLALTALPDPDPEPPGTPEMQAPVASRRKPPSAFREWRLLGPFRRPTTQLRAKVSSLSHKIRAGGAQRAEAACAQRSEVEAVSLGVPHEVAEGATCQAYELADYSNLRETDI
The experiment in a line: Tested for binding affinity against recombinant human Alpha-1D adrenergic receptor using [125I]-HEAT in competition binding assay.

As a reminder, the Ki is the equilibrium dissociation constant of an inhibitor or competing ligand from its target.

`C[C@H]1OC(=O)N(C(=O)NCCCN2CCC(c3ccc(F)cc3)CC2)[C@H]1c1ccc(F)c(F)c1`: the inhibition constant Ki in test [1] stood at 48 nM; in test [2] it was 92 nM.

In the case of `C[C@@H]1OC(=O)N(C(=O)NCCCN2CCC(c3ccc(F)cc3)CC2)[C@@H]1c1ccc(F)c(F)c1`, in test [1], the inhibition constant Ki amounted to 76 nM.

As to `C[C@H]1OC(=O)N(C(=O)NCCCN2CCC(c3ccc(F)cc3)CC2)[C@@H]1c1ccc(F)c(F)c1`, the Ki was determined as 74 nM in test [1] and 193 nM in test [2].
